Results: PubChem BioAssay (NCI)
Values joined by “and” are separate entries in the source; they are usually repeats but may differ in a detail not shown here. Equal values may be shown once.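 Each compound was tested at five concentrations against cells in 96-well plates for 48 hours. Here, GI50 denotes the concentration required for 50% inhibition of growth. TGI marks complete inhibition of growth.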

What was measured:
Experiment in all cases: inhibition of tumour cell growth, NCI panel, 48 h
[1] = system: K-562 leukemia
[2] = system: BT-549 breast
[3] = system: MALME-3M melanoma
[4] = system: COLO 205 colon
[5] = system: EKVX NSCLC
[6] = system: NCI-H23 lung
[7] = system: NCI-H226 lung
[8] = system: TK-10 renal
[9] = system: CCRF-CEM leukemia
[10] = system: HOP-92 NSCLC

SMILES	TGI [1]	TGI [2]	TGI [3]	TGI [4]	TGI [5]	TGI [6]	TGI [7]	TGI [8]	TGI [9]	TGI [10]	GI50 [7]	GI50 [8]	GI50 [1]	GI50 [3]	GI50 [4]	GI50 [6]	GI50 [10]	GI50 [9]	GI50 [2]	GI50 [5]
COc1ccc(Cn2c(=O)c(OS(=O)(=O)C(F)(F)F)c(C)c3cc4ccccc4cc32)cc1	> 100 µM	> 100 µM	> 100 µM	> 100 µM	> 100 µM	> 100 µM	> 100 µM	> 100 µM	> 100 µM											
CCOC(=O)/C=C(/C(=O)OCC)n1cc(C)c(=O)n(Cc2cn(CCCCOC(C)=O)nn2)c1=O	> 100 µM			> 100 µM	22.7 µM	31.9 µM	37.1 µM	16.7 µM	2.31 µM	3.11 µM										
Cc1c2cc[n+](C)cc2c(C)c2c1[nH]c1ccc(OCC(F)(F)F)cc12	> 56.6 µM		8.25 µM		82.9 µM	5.8 µM and 9.49 µM	1.69 µM and 3.75 µM	> 100 µM	> 100 µM	8.98 µM and > 28.5 µM	581 nM	13.5 µM and > 100 µM								
Cc1cc2ccccc2oc(=O)/c1=N\Nc1ccccc1	> 100 µM	> 100 µM	> 100 µM	> 100 µM	> 100 µM	> 100 µM	> 100 µM		> 100 µM	> 100 µM										
C/C(=N\Nc1nc2cc(F)ccc2s1)c1ccccn1	> 43.8 µM	5.84 µM	23 µM			2.23 µM			> 100 µM	11.5 µM										
O=C1OC2(CCCCC2)C(Oc2ccc(Cl)cc2)=C1F	> 100 µM		51.6 µM	> 100 µM	> 100 µM			> 100 µM	86.1 µM	82.5 µM										
CC(C)=CCNc1ncnc2c1ncn2CCC(=O)O	> 100 µM	> 100 µM	> 100 µM	> 100 µM		> 100 µM	> 100 µM	> 100 µM	> 100 µM	> 100 µM										
CCOC(=O)c1cnc2n(c1=O)[C@H]1CCCC[C@@H]1N2	> 100 µM	> 100 µM	> 100 µM	> 100 µM	> 100 µM	> 100 µM	> 100 µM		> 100 µM	> 100 µM										
CC(C)(C)N=C1C(=O)C2(C)CCC1C2(C)C (stereo unspecified)	> 100 µM	> 100 µM	> 100 µM	> 100 µM	> 100 µM	> 100 µM	> 100 µM	> 100 µM												
O=Cc1c2c(cc3c1CC1(C3)Cc3cc4c(c(C=O)c3C1)CCC4)CCC2	63.7 µM		89.3 µM	57.4 µM	> 100 µM	> 100 µM	> 100 µM	98.8 µM	58.4 µM	56.5 µM										
CC(C)=CC(=O)OC1C2C(C)=CC(=O)C(O)C2(C)C2C3(O)OCC24C(CC(=O)OC14)C(C)C3O (stereo unspecified)	0.0775 µM and 0.237 µM	0.00846 µM	0.0136 µM	0.359 µM and 1.11 µM and 0.42 µM				0.0917 µM and 0.81 µM	0.109 µM and 0.177 µM and 0.253 µM	0.0465 µM and 0.0367 µM	20 nM	0.0511 µM	20 nM	4.75 nM	117 nM	20 nM	20.7 nM	20 nM		
COc1cccc(C2C(C#N)=C(N)Oc3cc(OCCCCCC[P+](c4ccccc4)(c4ccccc4)c4ccccc4)ccc32)c1 (stereo unspecified)	> 23.7 µM					2.83 µM		2.99 µM	3.36 µM	0.912 µM		1.46 µM	334 nM			624 nM	230 nM	596 nM		
O=Cn1c2ccccc2c2ccccc21	> 100 µM		> 100 µM	> 100 µM	> 100 µM	> 100 µM		> 100 µM	> 100 µM	> 100 µM										
Cc1cccc(NC(=S)Nc2cccc(Cl)c2)n1	> 100 µM	> 100 µM	> 100 µM	> 100 µM	> 100 µM	> 100 µM	> 100 µM	> 100 µM	> 100 µM											
N#Cc1nc(CN2C(=O)c3ccccc3C2=O)oc1N	> 100 µM		> 100 µM	> 100 µM			> 100 µM	> 100 µM	> 100 µM	> 100 µM										
COC(=O)c1c(CC(=O)OC(C)C)cc2n(c1=O)Cc1c-2nc2ccccc2c1OC	> 100 µM		> 100 µM	> 100 µM	> 100 µM	> 100 µM	> 100 µM	> 100 µM	> 100 µM	> 100 µM										
C[C@@H]([C@H]1CC[C@@]2(C)[C@@H]3CC[C@@H]4C(=CC3=CC[C@]12C)CC[C@H](N(C)C)C4(C)C)N(C)C	> 100 µM		> 100 µM	> 100 µM	> 100 µM	> 100 µM	> 100 µM	> 100 µM	> 100 µM	> 100 µM										
NCCCNCCSP(=O)(O)O	> 750 µM		> 726 µM	> 657 µM	> 750 µM	> 750 µM	> 750 µM		> 750 µM	> 750 µM										
Cc1cc2ccccc2n2c1nc1ccc(O)cc12	> 10 µM	> 10 µM	> 10 µM	> 10 µM	> 10 µM	> 10 µM		> 10 µM	> 10 µM											
C=CCCCN(C(=O)c1ccccc1)c1ccc(C(=O)OC)o1			> 100 µM	> 100 µM	> 100 µM	> 100 µM	> 100 µM	> 100 µM		> 100 µM										
CN1COCN=C1NC#N	> 100 µM		> 100 µM	> 100 µM	> 100 µM		> 100 µM		> 100 µM											
CC(=O)c1c(-c2ccco2)c(C#N)c(=S)n(C2OC(CO)C(O)C(O)C2O)c1C (stereo unspecified)	> 100 µM	> 100 µM	> 100 µM	> 100 µM	> 100 µM	> 100 µM		> 100 µM	> 100 µM											
O=C(NCc1cn(Cc2cccc(Oc3ccccc3)c2)nn1)c1cccnc1NCc1ccc(Cl)cc1	> 100 µM	7.63 µM	> 100 µM	4.04 µM	> 100 µM	> 100 µM	> 100 µM	49.1 µM	> 100 µM		4230 nM	3.7 µM	3240 nM	5690 nM	2180 nM	3660 nM		3050 nM	2720 nM	3.65 µM
